Measurements: patent US8173680B2, “Cannabinoid receptor modulators” (7TM Pharma A/S, priority 2007, dated 2012)

molecular target: T1, human CB1 receptor (Homo sapiens, UniProt P21554); assay: Cannabinoid Receptor-1 functional assay: inhibition of CP55940-induced [35S]GTPγS binding to membranes from CHO-K1 cells expressing the human CB1 receptor; assay type: biochemical; conditions: antagonizing CB1 receptor agonist CP55940 (3 nM), [35S]GTPγS SPA, read-out: Antagonism IC50
T1 construct: expressed in transfected cells; membrane preparation
Source text: Transfection and Cell Culture—The cDNA encoding the human CB1 (Cannabinoid Receptor-1) receptor (GenBank accession number NM_016083) was cloned from a human adipose tissue cDNA library and cloned into the eukaryotic expression vector pcDNA3.1 (Invitrogen).
Chinese Hamster Ovary cells (CHO-K1) stably expressing recombinant human CB1 receptors were generated by transfecting the plasmid containing the coding sequence of the human CB1 receptor in CHO-K1 cells, using lipofectamine, according to the manufacturers instructions. Resistant clones were selected in the presence of 600 μg/ml G418 (Life technology). Stably transfected CHO-K1 cells were maintained in Ham's F-12 culture medium (Invitrogen), supplemented with 10% fetal calf serum (Invitrogen), 100 U/ml penicillin, 100 μg/ml streptomycin (Life Technology), and 600 μg/ml G418.
Cannabinoid Receptor-1 Functional Assay.
Functional activities of the above examples of compounds of the invention were assessed in vitro by measuring their ability to inhibit CP55940-induced [^35S]GTPγS binding to membranes prepared from CHO-K1 cells expressing the human CB1 receptor (described in Transfection and Cell Culture). CP55940 is a well known non-selective CB1 and CB2 receptor agonist (e.g Felder et al., 1995, Molecular Pharmacology, (48) 443-50). Membranes were prepared by a standard procedure. Briefly, cells were harvested using 10 mM EDTA and collected by centrifugation. Pelleted cells were homogenized in ice-cold 20 mM Hepes (pH 7.4), 10 mM EDTA and protease inhibitors (Complete protease inhibitor cocktail tablet, Roche) using an Ultra Turrax Homogenizer. The homogenate was centrifuged at 14 000 rpm for 45 min. at 4° C. The resultant pellet was resuspended in the same buffer but with only 0.1 mM EDTA and was again centrifuged at 14 000 rpm for 45 min. at 4° C. The resulting pellet (membranes) was resuspended in 20 mM Hepes (pH 7.4), 0.1 mM EDTA, 2 mM MgCl2 and protease inhibitors and protein concentration was determined by Micro BCA Protein Assay Reagent Kit (Pierce Biotechnology) according to the manufacturers instructions. The [^35S]GTPγS SPA (Scintillation Proximity Assay) binding assay was performed by incubating 5 μg/well membranes prepared from CHO-K1 cells expressing the human CB1 receptor with 1 nM [^35S]GTPγS (Perkin Elmer—NEG 030H) in the presence of 3 nM of CP55940 and various concentrations of the test compounds at room temperature for 1 hr in 96-well microtiter plates. 0.4 mg/well SPA beads (PVT-WGA; RPNQ0001 Amersham Pharmacia Biotech) were then added and the incubation continued for further 30 min. on an orbital shaker. The assay buffer contained 50 mM HEPES (pH 7.5), 50 mM NaCl, 2.5 mM MgCl2, 0.1% BSA, 1 μM GDP and 100 μg/ml Saponin. Microtiter plates were centrifuged at 1500 rpm for 5 min. and radioactivity was read immediately using a Topcounter (PerkinElmer Life Sciences). Data were analyzed and IC50 values determined by non-linear regression analysis using the Prism software (GraphPad Software, San Diego).

T1 sequence (P21554 whole entry): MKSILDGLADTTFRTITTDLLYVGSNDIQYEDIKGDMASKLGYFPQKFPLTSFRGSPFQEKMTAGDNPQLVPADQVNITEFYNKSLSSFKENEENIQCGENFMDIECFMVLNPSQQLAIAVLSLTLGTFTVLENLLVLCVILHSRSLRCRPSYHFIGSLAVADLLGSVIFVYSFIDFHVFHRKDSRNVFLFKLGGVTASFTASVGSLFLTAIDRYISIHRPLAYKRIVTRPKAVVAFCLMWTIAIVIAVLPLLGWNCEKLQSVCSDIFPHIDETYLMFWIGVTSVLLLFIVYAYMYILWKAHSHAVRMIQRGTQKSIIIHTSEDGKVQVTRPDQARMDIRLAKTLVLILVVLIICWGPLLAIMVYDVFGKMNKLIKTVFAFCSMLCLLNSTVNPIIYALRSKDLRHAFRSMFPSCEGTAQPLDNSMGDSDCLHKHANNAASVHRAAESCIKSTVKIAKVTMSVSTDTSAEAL

Compound | IC50
O=C1NC(=O)C(Cc2c(C(=O)N3CCC(c4ccccc4F)CC3)nn(-c3ccccc3Cl)c2-c2ccc(Cl)cc2)N1 (centres unmarked) [Compound 6.01, 5-{1-(2-Chloro-phenyl)-5-(4-chloro-phenyl)-3-[4-(2-fluoro-phenyl)-piperidine-1-carbonyl]-1H-pyrazol-4-ylmethyl}-imidazolidine-2,4-dione] | < 500 nM
C[C@H](c1ccc(C(F)(F)F)cc1)N(C)C(=O)c1nn(-c2ccccc2Cl)c(-c2ccc(Cl)cc2)c1CC(=O)NS(C)(=O)=O [Compound 3.02, 1-(2-Chloro-phenyl)-5-(4-chloro-phenyl)-4-(2-methanesulfonylamino-2-oxo-ethyl)-1H-pyrazole-3-carboxylic acid methyl-[(R)-1-(4-trifluoromethyl-phenyl)-ethyl]-amide] | < 500 nM
C[C@@H](NC(=O)c1nn(-c2ccccc2Cl)c(-c2ccc(Cl)cc2)c1Cc1noc(=O)[nH]1)c1ccc(C(F)(F)F)cc1 [Compound 1.01, 5-(4-Chloro-phenyl)-1-(2-chloro-phenyl)-4-(5-oxo-4,5-dihydro-[1,2,4]oxadiazol-3-ylmethyl)-1H-pyrazole-3-carboxylic acid [(R)-1-(4-trifluoromethyl-phenyl)-ethyl]-amide] | < 500 nM
N#CNC(=O)Cc1c(C(=O)N2CCC(Oc3cc(F)cc(F)c3)CC2)nn(-c2ccccc2Cl)c1-c1ccc(Cl)cc1 [Compound 4.03, {1-(2-Chloro-phenyl)-5-(4-chloro-phenyl)-3-[4-(3,5-difluoro-phenoxy)-piperidine-1-carbonyl]-1H-pyrazol-4-yl}-N-cyano-acetamide] | < 500 nM
C[C@@H](NC(=O)c1nn(-c2ccccc2Cl)c(-c2ccc(Cl)cc2)c1CC1NC(=O)NC1=O)c1ccc(C(F)(F)F)cc1 (some centres unmarked) [Compound 6.02] | < 500 nM
N#CNC(=O)Cc1c(C(=O)N2CCC(c3ccccc3F)CC2)nn(-c2ccccc2Cl)c1-c1ccc(Cl)cc1 [Compound 4.01, 2-{1-(2-Chloro-phenyl)-5-(4-chloro-phenyl)-3-[4-(2-fluoro-phenyl)-piperidine-1-carbonyl]-1H-pyrazol-4-yl}-N-cyano-acetamide] | < 500 nM
C[C@H](c1ccc(C(F)(F)F)cc1)N(C)C(=O)c1nn(-c2ccccc2Cl)c(-c2ccc(Cl)cc2)c1C1CC(=O)NC1=O (stereo partly drawn) [Compound 5.01, 1-(2-Chloro-phenyl)-5-(4-chloro-phenyl)-4-(2,5-dioxo-pyrrolidin-3-yl)-1H-pyrazole-3-carboxylic acid methyl-[(R)-1-(4-trifluoromethyl-phenyl)-ethyl]-amide] | < 500 nM
CS(=O)(=O)NC(=O)Cc1c(C(=O)N2CCC(c3ccccc3F)CC2)nn(-c2ccccc2Cl)c1-c1ccc(Cl)cc1 [Compound 3.01, N-(2-{1-(2-Chloro-phenyl)-5-(4-chloro-phenyl)-3-[4-(2-fluoro-phenyl)-piperidine-1-carbonyl]-1H-pyrazol-4-yl}-acetyl)-methanesulfonamide] | < 500 nM
C[C@H](c1ccc(C(F)(F)F)cc1)N(C)C(=O)c1nn(-c2ccccc2Cl)c(-c2ccc(Cl)cc2)c1CC(=O)NC#N [Compound 4.02, (1-(2-Chloro-phenyl)-5-(4-chloro-phenyl)-3-{methyl-[(R)-1-(4-trifluoromethyl-phenyl)-ethyl]-carbamoyl}-1H-pyrazol-4-yl)-N-cyano-acetamide] | < 500 nM
O=C(c1nn(-c2ccccc2Cl)c(-c2ccc(Cl)cc2)c1Cc1n[nH]c(=O)o1)N1CCC(c2ccccc2F)CC1 [Compound 2.01, 5-{5-(4-Chloro-phenyl)-1-(2-chloro-phenyl)-3-[4-(2-fluoro-phenyl)-piperidine-1-carbonyl]-1H-pyrazol-4-ylmethyl}-3H-[1,3,4]oxadiazol-2-one] | < 500 nM
1-(2-Chloro-phenyl)-5-(4-chloro-phenyl)-4-(5-oxo-4,5-dihydro-[1,3,4]oxadiazol-2-ylmethyl)-1H-pyrazole-3-carboxylic acid ((R)-1-p-tolyl-ethyl)-amide [Compound 2.02] | < 500 nM
